{"source": "patent US10519423B1", "about": "“High efficiency reprogramming of fibroblasts into cardiomyocytes” (The Regents of the University of Colorado, a body corporate, priority 2015, dated 2019)", "type_in_all_cases": "cell-based, mouse", "key": {"[1]": {"test_system": "adult cardiac fibroblasts (ACFs)", "assay": "qPCR of cardiac genes in adult cardiac fibroblasts", "settings": "infected ACFs treated with A83-01 for 4 weeks", "description": "(§1) Hearts or skinned tails from adult C57BL6 mice were cut into small pieces with ˜1 mm diameter. The biopsies were seeded on a 10 cm culture dish and incubated with 10 mL of growth medium (DMEM/Hi glucose (Hyclone), 10% FBS (Gemini:), 1.1% Penicillin-Streptomycin (Gibco) and 1.1% GlutaMAX supplement (Gibco)) at 37° C. with 5% CO2. TTFs migrated out of the biopsies after 3 days. The media were changed every other day. Once the TTFs have reached a 70-80% confluence, the cells were harvested and stored for future use.\n(§2) Cells were harvested in TRizol reagent (Ambion) for RNA isolation. RNA was extracted with the RNeasy® Plus Universal Mini Kit (Qiagen). RT-PCR was performed using the Superscript III first-strand synthesis system (Invitrogen). qPCR was performed using the SYBR® Green PCR master mix (Applied Biosystems) or StepOne™ Real-Time PCR Systems (Applied Biosystems). Primers are listed in Supplementary Table 1. Ryr2 (Mm00465877_m1) and Myh7 (Mm01319006_91) are Taqman probes (Life technologies)."}, "MEFs [2]": {"test_system": "MEFs", "assay": "qPCR of cardiac genes in reprogramming MEFs", "settings": "reprogramming MEFs treated with A83-01 for 5 days, day 7", "description": "as §2"}, "MEFs [3]": {"test_system": "MEFs", "assay": "Immunocytochemistry for cTnT and α-actinin in infected MEFs", "settings": "day 14, without or with A83-01", "description": "(§3) Fibroblasts were plated on tissue culture dishes pre-coated with SureCoat (Cellutron) at a density of ˜40 cells/mm^2 before transduction. The fibroblast growth medium was replaced with freshly made viral mixture containing polybrene (Sigma). Twenty-four hours later, fibroblasts were infected again with viral mixture containing polybrene. Twenty fours later, the viral medium was replaced with induction medium, composed of DMEM/199 (4:1) (Gibco), 10% FBS (Gemini), 5% horse serum(Gemini), antibiotics (Gibco), 1× non-essential amino acids (Gibco), 1× essential amino acids (Gibco), 1× B-27 (Gibco), 1× insulin-selenium-transferin (Gibco), 1× vitamin mixture (Gibco), and 1× sodium pyruvate (Gibco). Medium was changed every two-three days until cells were examined.\nCells were fixed in 2% PFA for 15 min on ice then washed with DPBS (Gibco) three times at RT. The cells were permeabilized in 0.5% Triton X-100 (made in PBS) for 20 min at RT. After washing the cells with DPBS (Gibco), cells were incubated with the primary antibody against α-actinin (Sigma A7811, 1:300), Connexin 43 (Sigma, C6219, 1:500), Troponin T (Thermo Scientific MS-245-P, 1:500), α-SMA (Santa Cruz Biotechnology, SC-32251, 1:800), Myl2 (Proteintech, 10906-1-AP, 1:200), or Myl7 (Proteintech, 17283-1-AP, 1:200) in 10% FBS(Gemini) in DPBS for 1 hour at RT. Cells were wash with DPBS three times, 5 min each. Cell were incubated with the secondary antibody (Alexa Fluor 555 Molecular Probes A21422, 1:1000) and Hoechest (Molecular Probes 33342, 1:5000) for 30 mins at RT."}, "[4]": {"test_system": "adult tail-tip fibroblasts (ATTFs)", "assay": "Counting of spontaneously beating cells in adult tail-tip fibroblasts", "settings": "GHMT2m-ATTFs treated with A83-01 (0.5 μM)", "description": "as §1, §3\nCells in 60 mm dishes were examined under an EVOS® FL Color imaging system (Life Technologies) at 25° C. Beating cells were counted at a field with an area of 0.89 mm^2. Ten to fifteen fields in each dish were randomly chosen."}, "TTFs": {"test_system": "TTFs", "assay": "qPCR of cardiac genes in tail-tip fibroblasts", "settings": "GHMT2m-TTFs treated with A83-01 for 4 weeks", "description": "as §1, §2"}, "[5]": {"test_system": "adult cardiac fibroblasts (ACFs)", "assay": "Immunocytochemistry for cTnT and α-actinin in adult cardiac fibroblasts", "settings": "by 4 weeks, without or with A83-01", "description": "as §1, §3\nCells were fixed in 2% PFA for 15 min on ice then washed with DPBS (Gibco) three times at RT. […]"}, "MEFs [6]": {"test_system": "MEFs", "assay": "Intracellular staining for flow cytometry (cTnT, Myc) in retrovirus-infected MEFs", "settings": "for cTnThigh fraction: day 7", "description": "C57BL6 pregnant mice at E13 were order from Charles River's laboratory. Embryos at E14.5 were harvested and their internal organs and head were removed. The body below the liver was minced using blade to fine pieces. Minced embryos were incubated with 2 ml of 0.25% trypsinIl mM EDTA, Phenol Red (Gibco) for 40 mins at 37° C. with 5% CO2. Cells were suspended in 25 ml of growth medium (DMEM/Hi glucose (Hyclone) 10% FBS (Gemini), 1.1% Penicillin-Streptomycin (Gibco) and 1.1% GlutaMAX supplement (Gibco)) and then plated on a 15 cm dish. In 24 hours, the media was aspirated and new 25 ml of growth medium was added. In 72 hours, MEFs were harvested and stored for future use.\nas §3\nAdherent fibroblasts were washed with DPBS (Gibco). Cells were detached from culture dish by treatment with 0.25% Trypsin/EDTA (Gibco) for 3 min at 37° C. Cells were then washed with 4 ml of 5% FBS (Gemini) in DPBS filtered through a cell strainer and centrifuge at 1200 rpm×6 mins. Cells were washed with 500 ul of 1% BSA in DPBS. Cells were fixed with BD Cytofix/Cytoperm™ solution in 0.2 ml/1 million cells in 1.5 ml eppendorf tube for 20 min on ice. Cells were washed with 1 ml of BD perm/wash buffer and Centrifuged for 6 min at 1200 rpm. The supernatant was discarded; cells were washed again with 1 ml of BD Perm/wash buffer and left overnight at 4° C. The next day, Cells were centrifuged for 6 min at 1200 rpm, the supernatant discarded and 100 μl of Blocking buffer made with 5% goat, donkey serum (Sigma: G9023 and D9663) in Perm/wash buffer was added to the cells and incubated for 30 min at RT. A primary antibody: Mouse Troponin T (cTnT) antibody (Thermo Scientific, ms-295-p, 1:200), mouse anti-C-Myc antibody (BD Pharmingen, 551102, 1:200) in 100 μl BD Perm/Wash buffer was added to the cells and incubated for 1 hr at RT. One ml cold BD Perm/wash buffer was added to the cells and centrifuged for 6 min at 1200 rpm. […] Cells were re-suspended in 300 ul of 1% BSA/DPBS and then analyzed using FACS Caliber (BD Sciences) and FlowJo software."}}, "data": [{"smiles": "Cc1cccc(-c2nn(C(=S)Nc3ccccc3)cc2-c2ccnc3ccccc23)n1", "note": "[A83-01]", "values": [{"measurement": "expression of other cardiac genes, Actc1, Myh6 and Ryr2", "setting": "[1]", "value": "enhanced"}, {"measurement": "program of cardiomyocyte gene expression", "setting": "MEFs [2]", "value": "enhanced"}, {"measurement": "proportion of cTnT+ cells (immunostaining)", "setting": "MEFs [3]; GHMT2m-cultures of MEFs", "value": "~67", "unit": "%"}, {"measurement": "proportion of α-actinin+ cells (immunostaining)", "setting": "MEFs [3]; GHMT2m-cultures of MEFs", "value": "~64", "unit": "%"}, {"measurement": "proportion of cTnT+ cells (immunostaining)", "setting": "MEFs [3]; GHMT-cultures of MEFs", "value": "approximately 58%"}, {"measurement": "proportion of α-actinin+ cells (immunostaining)", "setting": "MEFs [3]; GHMT-cultures of MEFs", "value": "approximately 57%"}, {"measurement": "time by which spontaneously beating cells appeared", "setting": "[4]", "value": "2-3 weeks"}, {"measurement": "spontaneously contracting cells", "setting": "[4]; by 4 weeks", "value": "about 4%"}, {"measurement": "spontaneously contracting cells per cm^2", "setting": "[4]; by 4 weeks", "value": "approximately 300 cells per cm^2"}, {"measurement": "cardiomyocyte gene expression", "setting": "TTFs", "value": "Enhanced"}, {"measurement": "ACFs positive for cTnT", "setting": "[5]; GHMT2m-infected ACFs", "value": "approximately 18%"}, {"measurement": "ACFs positive for cTnT", "setting": "[5]; GHMT-infected ACFs", "value": "approximately 10%"}, {"measurement": "cTnThigh fraction", "setting": "MEFs [6]; GHMT2m-infected MEFs, alone or treated with A83-01 (0.5 μM, day 3 to day 7)", "value": "approximately 45.6%"}, {"measurement": "cTnThigh fraction", "setting": "MEFs [6]; GHMT-infected MEFs, alone or treated with TGF-β1 (10 ng/ml) or A83-01 (0.5 μM, day 3 to day 7)", "value": "approximately 30.7%"}, {"measurement": "induction of cTnT+ cells by the small molecule alone", "setting": "MEFs [6]; MEFs without reprogramming factors, flow cytometry", "value": "did not induce cTnT+ cells"}]}]}
